Experimental data: the supplement of paper PMC9262897, “Low-cost anti-mycobacterial drug discovery using engineered E. coli” (Nature Communications, 2022)

Experiments:
Assay in all cases: growth (OD600 after 24 h); higher = more growth
Efflux+ = tested on: Efflux+
Protocol: (§1)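 E. coli BW25113 ΔaraC (Efflux+) or efflux-pump deletion strains (ΔtolC ΔentC, ΔemrE, ΔmdtI, ΔyeeO, ΔmdtK, ΔmdtM) diluted 1:100 in M9-based medium with a drug dilution series. Growth is read as OD600 after 24 h; 3 biological replicates.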

∆emrE = tested on: ∆emrE
Protocol: as §1

∆mdtI = tested on: ∆mdtI
Protocol: as §1

∆mdtK = tested on: ∆mdtK
Protocol: as §1

∆mdtM = tested on: ∆mdtM
Protocol: as §1

∆tolC ∆entC = tested on: ∆tolC ∆entC
Protocol: as §1

∆yeeO = tested on: ∆yeeO
Protocol: as §1

CC/C(=C(/CC)c1ccc(O)cc1)c1ccc(O)cc1 [Diethylstilbestrol]
growth
Details	Efflux+	∆emrE	∆mdtI	∆mdtK	∆mdtM	∆tolC ∆entC	∆yeeO
drug 0.5 µM	0.872	0.993	0.863	0.717	0.7859	0.995	0.983
drug 1.25 µM	1.04	0.978	0.979	0.754	0.8345	1.04	0.991
drug 2.5 µM	1.03	0.977	0.976	0.881	0.903	1.03	1.01
drug 5 µM	1.07	1.01	0.9841	0.786	0.956	0.761	1
drug 10 µM	1.056	1.06	1.02	0.84	0.9842	0.0999	1.04
drug 20 µM	1.06	1.08	0.948	0.713	1.05	0.0484	1.07

N=C(N)c1ccc(OCCCCCOc2ccc(C(=N)N)cc2)cc1 [Pentamidine]
growth
Details	Efflux+	∆emrE	∆mdtI	∆mdtK	∆mdtM	∆tolC ∆entC	∆yeeO
drug 6.25 µM	0.978	0.879	1.003	0.814	0.809	0.996	0.845
drug 12.5 µM	0.894	0.8324	0.936	0.77	0.7967	0.854	0.833
drug 25 µM	0.88	0.826	0.89493	0.68	0.779	0.804	0.79
drug 50 µM	0.805	0.811	0.837	0.513	0.745	0.709	0.758
drug 100 µM	0.635	0.739	0.655	0.367	0.614	0.389	0.637
drug 200 µM	0.337	0.615	0.352	0.212	0.502	0.0928	0.34

Nc1nc2ccc(OC(F)(F)F)cc2s1 [Riluzole]
growth
Details	Efflux+	∆emrE	∆mdtI	∆mdtK	∆mdtM	∆tolC ∆entC	∆yeeO
drug 16 µM	1.09	0.961	1.06	0.831	0.802	1.05	0.958
drug 31 µM	1.038	1.06	1.045	0.799	0.79	1.09	0.905
drug 62 µM	0.997	1.08	1.01	0.788	0.776	1.02	0.851
drug 125 µM	0.978	1.12	0.981	0.749	0.74	0.97	0.909
drug 250 µM	0.973	1.09	0.9767	0.741	0.785	0.634	0.857
drug 500 µM	0.74	0.8264	0.634	0.669	0.527	0.0507	0.703
